From patent EP4647071A1, “MITOCHONDRIAL COMPLEX I MODULATOR FOR USE IN THE TREATMENT OF ARTHRITIS” (Istesso Therapeutics Limited, priority 2024, dated 2025) come the findings set out here.

In one experiment the test system is rheumatoid factor. The experiment in a line: Rheumatoid factor inflammatory biomarker, clinical study. The format is in vivo, human. The note with it: 12 weeks. From the text: These structural changes are accompanied by a reduction in the acute phase reactant, C-reactive protein (CRP) and other inflammatory markers such as rheumatoid factor (Table 4). Table 3. Effect of MCIM compounds on damage indicators. * indicates statistical significance, p<0.05. a p = 0.1

A further experiment deals with C-reactive protein (CRP). The experiment in a line: C-reactive protein inflammatory biomarker, clinical study. The format is in vivo, human. To be noted: 12 weeks.

Marks after values point to notes of the source that are not given here.

`C[C@]1(O)CC[C@H](NS(=O)(=O)c2ccc(-c3ccc(Cl)cc3C#N)cc2)CC1` [HMC-C-01-A]: the “Rheumatoid factor, mean, Change from baseline” value is listed as 6.8 (80.9) with rheumatoid factor (5 mg once daily), -5.0 (60.4) with rheumatoid factor (20 mg once daily) and -11.3 (88.0) in the experiment with rheumatoid factor (40 mg once daily). The “CRP- mean, Change from baseline” value was 0.88 (18.4) with C-reactive protein (CRP) (5 mg once daily); -4.13 (20.6) with C-reactive protein (CRP) (20 mg once daily); -5.73 (27.7) * in the experiment on C-reactive protein (CRP) (40 mg once daily, p<0.05). For the same molecule, the “CRP- median, Change from baseline” value in the experiment with C-reactive protein (CRP) (5 mg once daily) is recorded as -0.20; in the experiment on C-reactive protein (CRP) (20 mg once daily) it was -0.10; in the experiment on C-reactive protein (CRP) (40 mg once daily, p<0.05), -2.50 *.
